{"source": "ChEMBL document CHEMBL1201862", "about": "“PubChem BioAssay data set” (2004)", "assay_in_all_cases": "inhibition of tumour cell growth, NCI panel, 48 h", "key": {"A498": {"test_system": "A498"}, "SN12C": {"test_system": "SN12C"}, "MDA-MB-231": {"test_system": "MDA-MB-231"}, "HT-29": {"test_system": "HT-29"}, "LOX IMVI": {"test_system": "LOX IMVI"}, "ACHN": {"test_system": "ACHN"}, "UACC-257": {"test_system": "UACC-257"}, "UO-31": {"test_system": "UO-31"}, "SK-MEL-2": {"test_system": "SK-MEL-2"}, "HOP-62": {"test_system": "HOP-62"}, "PC-3": {"test_system": "PC-3"}, "MOLT-4": {"test_system": "MOLT-4"}, "NCI-H460": {"test_system": "NCI-H460"}, "786-0": {"test_system": "786-0"}, "NCI-H522": {"test_system": "NCI-H522"}, "U-251": {"test_system": "U-251"}, "RXF 393": {"test_system": "RXF 393"}, "MDA-N": {"test_system": "MDA-N"}, "M14": {"test_system": "M14"}, "HOP-92": {"test_system": "HOP-92"}, "SK-OV-3": {"test_system": "SK-OV-3"}, "RPMI-8226": {"test_system": "RPMI-8226"}, "HCC 2998": {"test_system": "HCC 2998"}, "OVCAR-8": {"test_system": "OVCAR-8"}, "SNB-75": {"test_system": "SNB-75"}, "NCI-H226": {"test_system": "NCI-H226"}, "SR": {"test_system": "SR"}, "NCI-H23": {"test_system": "NCI-H23"}, "MCF7": {"test_system": "MCF7"}, "OVCAR-4": {"test_system": "OVCAR-4"}, "K562": {"test_system": "K562"}, "CCRF-CEM": {"test_system": "CCRF-CEM"}, "SK-MEL-28": {"test_system": "SK-MEL-28"}, "TK-10": {"test_system": "TK-10"}, "SF-295": {"test_system": "SF-295"}, "HCT-116": {"test_system": "HCT-116"}, "OVCAR-3": {"test_system": "OVCAR-3"}, "Malme-3M": {"test_system": "Malme-3M"}, "UACC-62": {"test_system": "UACC-62"}, "SF-268": {"test_system": "SF-268"}, "A549": {"test_system": "A549"}, "EKVX": {"test_system": "EKVX"}, "IGROV-1": {"test_system": "IGROV-1"}, "HCT-15": {"test_system": "HCT-15"}, "MDA-MB-435": {"test_system": "MDA-MB-435"}, "CAKI-1": {"test_system": "CAKI-1"}, "KM12": {"test_system": "KM12"}, "SF-539": {"test_system": "SF-539"}, "SNB-19": {"test_system": "SNB-19"}, "SW-620": {"test_system": "SW-620"}, "NCI/ADR-RES": {"test_system": "NCI/ADR-RES"}, "Hs-578T": {"test_system": "Hs-578T"}, "OVCAR-5": {"test_system": "OVCAR-5"}, "BT-549": {"test_system": "BT-549"}, "HL-60": {"test_system": "HL-60"}}, "note": "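Where inhibition never reached the appropriate level, the endpoint shown equals the highest concentration tested. Otherwise, values were interpolated linearly from a five-concentration, 48-hour dose response in 96-well plates. GI50 = concentration required for 50% inhibition of growth.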 Active and inactive are the calls of the source. Rule as the data show it: active = GI50 up to about 1.1 µM and inactive = higher.", "data": [{"compound": "CC12CCC(C(=O)O1)C(C)(C)O2", "note": "(stereo not given)", "values": [{"measurement": "GI50", "setting": "A498", "result": "> 100 µM (inactive)"}, {"measurement": "GI50", "setting": "SN12C", "result": "> 100 µM (inactive)"}, {"measurement": "GI50", "setting": "MDA-MB-231", "result": "> 100 µM (inactive)"}, {"measurement": "GI50", "setting": "HT-29", "result": "> 100 µM (inactive)"}, {"measurement": "GI50", "setting": "LOX IMVI", "result": "> 100 µM (inactive)"}, {"measurement": "GI50", "setting": "ACHN", "result": "> 100 µM (inactive)"}, {"measurement": "GI50", "setting": "UACC-257", "result": "> 100 µM (inactive)"}, {"measurement": "GI50", "setting": "UO-31", "result": "> 100 µM (inactive)"}, {"measurement": "GI50", "setting": "SK-MEL-2", "result": "> 100 µM (inactive)"}, {"measurement": "GI50", "setting": "HOP-62", "result": "> 100 µM (inactive)"}, {"measurement": "GI50", "setting": "PC-3", "result": "> 100 µM (inactive)"}, {"measurement": "GI50", "setting": "MOLT-4", "result": "> 100 µM (inactive)"}, {"measurement": "GI50", "setting": "NCI-H460", "result": "> 100 µM (inactive)"}, {"measurement": "GI50", "setting": "786-0", "result": "> 100 µM (inactive)"}, {"measurement": "GI50", "setting": "NCI-H522", "result": "> 100 µM (inactive)"}, {"measurement": "GI50", "setting": "U-251", "result": "> 100 µM (inactive)"}, {"measurement": "GI50", "setting": "RXF 393", "result": "> 100 µM (inactive)"}, {"measurement": "GI50", "setting": "MDA-N", "result": "> 100 µM (inactive)"}, {"measurement": "GI50", "setting": "M14", "result": "> 100 µM (inactive)"}, {"measurement": "GI50", "setting": "HOP-92", "result": "> 100 µM (inactive)"}, {"measurement": "GI50", "setting": "SK-OV-3", "result": "> 100 µM (inactive)"}, {"measurement": "GI50", "setting": "RPMI-8226", "result": "> 100 µM (inactive)"}, {"measurement": "GI50", "setting": "HCC 2998", "result": "> 100 µM (inactive)"}, {"measurement": "GI50", "setting": "OVCAR-8", "result": "> 100 µM (inactive)"}, {"measurement": "GI50", "setting": "SNB-75", "result": "> 100 µM (inactive)"}, {"measurement": "GI50", "setting": "NCI-H226", "result": "> 100 µM (inactive)"}, {"measurement": "GI50", "setting": "SR", "result": "> 100 µM (inactive)"}, {"measurement": "GI50", "setting": "NCI-H23", "result": "> 100 µM (inactive)"}, {"measurement": "GI50", "setting": "MCF7", "result": "> 100 µM (inactive)"}, {"measurement": "GI50", "setting": "OVCAR-4", "result": "> 100 µM (inactive)"}, {"measurement": "GI50", "setting": "K562", "result": "> 100 µM (inactive)"}, {"measurement": "GI50", "setting": "CCRF-CEM", "result": "> 100 µM (inactive)"}, {"measurement": "GI50", "setting": "SK-MEL-28", "result": "> 100 µM (inactive)"}, {"measurement": "GI50", "setting": "TK-10", "result": "> 100 µM (inactive)"}, {"measurement": "GI50", "setting": "SF-295", "result": "> 100 µM (inactive)"}, {"measurement": "GI50", "setting": "HCT-116", "result": "> 100 µM (inactive)"}, {"measurement": "GI50", "setting": "OVCAR-3", "result": "> 100 µM (inactive)"}, {"measurement": "GI50", "setting": "Malme-3M", "result": "> 100 µM (inactive)"}, {"measurement": "GI50", "setting": "UACC-62", "result": "> 100 µM (inactive)"}, {"measurement": "GI50", "setting": "SF-268", "result": "> 100 µM (inactive)"}, {"measurement": "GI50", "setting": "A549", "result": "> 100 µM (inactive)"}, {"measurement": "GI50", "setting": "EKVX", "result": "> 100 µM (inactive)"}, {"measurement": "GI50", "setting": "IGROV-1", "result": "> 100 µM (inactive)"}, {"measurement": "GI50", "setting": "HCT-15", "result": "> 100", "unit": "µM"}, {"measurement": "GI50", "setting": "MDA-MB-435", "result": "> 100 µM (inactive)"}, {"measurement": "GI50", "setting": "CAKI-1", "result": "> 100 µM (inactive)"}, {"measurement": "GI50", "setting": "KM12", "result": "> 100 µM (inactive)"}, {"measurement": "GI50", "setting": "SF-539", "result": "> 100 µM (inactive)"}, {"measurement": "GI50", "setting": "SNB-19", "result": "> 100 µM (inactive)"}, {"measurement": "GI50", "setting": "SW-620", "result": "> 100 µM (inactive)"}, {"measurement": "GI50", "setting": "NCI/ADR-RES", "result": "> 100 µM (inactive)"}, {"measurement": "GI50", "setting": "Hs-578T", "result": "> 100 µM (inactive)"}, {"measurement": "GI50", "setting": "OVCAR-5", "result": "> 100 µM (inactive)"}, {"measurement": "GI50", "setting": "BT-549", "result": "> 100 µM (inactive)"}, {"measurement": "GI50", "setting": "HL-60", "result": "> 100 µM (inactive)"}]}]}
